Like-named read-outs stand apart in the source and are kept apart here.
How the values were obtained:
[1] = metabolite profile in rat plasma by LC/MS; format: in vivo; details: rat plasma after single 6.7 or 20.5 mg/kg IV dose of parent
Method: (§1) Rat plasma samples from single 6.7 mg/kg IV at 0, 10 min and 20.5 mg/kg IV at 0, 0.5, 4 hr post dosing; dog plasma samples from single 1.5 mg/kg IV at 0, 0.167, 1, 6 hr and 7.6 mg/kg PO at 0, 0.5, 2, 6 hr post dosing were analyzed by LC/MS. A standard of the parent compound was analyzed by LC/MS and there was no impurity detected.
In rat plasma, a compound of formula I was the predominant compound-related material while metabolites were detected at very low levels. […] (See FIGS. 1 and 2; for compound I′ n=1, R^1=methyl, and R^2═H)

[2] = metabolite profile in dog plasma by LC/MS; format: in vivo; details: dog plasma after single […] IV or 7.6 mg/kg PO dose of parent
Method: as §1

rat-alpha7-nAChR = target: T1, rat-alpha7-nAChR (Rattus norvegicus, UniProt Q05941); test: functional FLIPR assay, alpha7 nAChR stably expressed in GH4C1 cells; format: cell-based
T1 construct: expressed in transfected cells
T1 sequence (Q05941 23-502): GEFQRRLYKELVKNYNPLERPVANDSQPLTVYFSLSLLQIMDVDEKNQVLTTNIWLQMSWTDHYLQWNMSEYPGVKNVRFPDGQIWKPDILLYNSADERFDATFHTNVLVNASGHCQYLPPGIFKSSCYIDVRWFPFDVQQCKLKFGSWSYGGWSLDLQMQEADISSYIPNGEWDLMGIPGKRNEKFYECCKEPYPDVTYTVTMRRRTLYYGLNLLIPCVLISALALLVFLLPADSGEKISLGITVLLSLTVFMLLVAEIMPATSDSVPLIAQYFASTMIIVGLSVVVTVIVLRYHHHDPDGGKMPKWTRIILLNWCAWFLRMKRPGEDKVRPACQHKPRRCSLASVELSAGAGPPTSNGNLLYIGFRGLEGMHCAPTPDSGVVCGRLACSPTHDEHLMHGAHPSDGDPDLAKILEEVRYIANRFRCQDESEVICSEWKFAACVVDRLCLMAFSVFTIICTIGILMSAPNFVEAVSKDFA

[3] = functional FLIPR primary screening assay, GH4C1 cell line expressing α7 nAChR, read-out: Alpha7 EC50

compound-related material detected in rat plasma [1]	EC50 (rat-alpha7-nAChR; [3])	SMILES	other results
detected as metabolites	–	CC(=O)N1CCCN(CCCCC(=O)Nc2cc(-c3ccc(O)cc3)n[nH]2)CC1 [Compound I-1]	compound-related material detected in dog plasma [2]: very minor metabolite
–	6900 nM	COc1ccc(C2CC(NC(=O)CCCCN3CCCNCC3)NN2)cc1 (stereo not drawn)	–
–	1000 nM	CC(=O)N1CCCC(CCCCC(=O)Nc2cc(-c3ccc(O)cc3)[nH]n2)CC1 (stereo not drawn)	–
detected as metabolites	–	CC(=O)N1CCCN(CCCCC(=O)Nc2cc(-c3ccc(OS(=O)(=O)O)cc3)[nH]n2)CC1 [Compound I-2]	–
–	–	C[N+]1(C)CCN(c2ccccc2)CC1 [DMPP, reference compound]	EC50 (rat-alpha7-nAChR; alpha7 nAChR stably expressed in GH4C1 cells, functional FLIPR assay, agonist validation, read-out: EC50): 980 ± 470 nM
